Activity calls are given as the source filed them. The rule behind the calls is not given here.
Key:
[1] = molecular target: Histamine H1 receptor (Homo sapiens) (UniProt P35367); test: Activity at human H1 receptor at 10 uM
[2] = molecular target: Thromboxane A2 receptor (Homo sapiens) (UniProt P21731); test: Activity at human Prostanoid TP receptor at 10 uM
[3] = molecular target: T1, UGT2B17 (Homo sapiens, UniProt O75795); test: Substrate activity at recombinant human UGT2B17 expressed in baculovirus infected insect cell membranes assessed as enzyme-mediated glucuronidation by measuring Km at 50 uM preincubated for 5 mins followed by UDPGA addition and measured after 60 mins by LC-MS/MS analysis; assay type: ADME
T1 sequence (O75795 whole entry): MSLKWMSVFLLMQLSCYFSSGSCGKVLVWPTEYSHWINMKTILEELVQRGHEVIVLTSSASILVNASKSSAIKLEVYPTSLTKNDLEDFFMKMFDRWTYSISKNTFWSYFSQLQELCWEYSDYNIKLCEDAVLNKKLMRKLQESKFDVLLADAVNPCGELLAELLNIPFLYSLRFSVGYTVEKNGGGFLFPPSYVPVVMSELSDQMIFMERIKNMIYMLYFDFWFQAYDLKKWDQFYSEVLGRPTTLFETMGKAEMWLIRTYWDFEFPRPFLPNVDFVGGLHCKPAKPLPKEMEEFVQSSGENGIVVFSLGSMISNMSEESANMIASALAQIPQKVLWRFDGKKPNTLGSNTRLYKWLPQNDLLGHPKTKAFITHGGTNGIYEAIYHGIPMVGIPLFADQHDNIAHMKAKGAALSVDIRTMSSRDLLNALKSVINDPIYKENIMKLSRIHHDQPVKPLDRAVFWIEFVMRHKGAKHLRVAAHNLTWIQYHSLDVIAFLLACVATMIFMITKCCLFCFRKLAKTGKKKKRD

[4] = molecular target: Voltage-gated L-type calcium channel (Homo sapiens, UniProt Q13936+Q13698+Q01668+O60840); test: Activity at human L-type calcium channel at 10 uM; assay type: protein assay
[5] = molecular target: Serine/threonine-protein kinase STK11 (Homo sapiens) (UniProt Q15831); test: Activity at human LKB1 at 10 uM
[6] = molecular target: fMet-Leu-Phe receptor (Homo sapiens) (UniProt P21462); test: Activity at human FPR1 receptor at 10 uM
[7] = molecular target: Muscarinic acetylcholine receptor M1 (Homo sapiens) (UniProt P11229); test: Activity at human M1 receptor at 10 uM
[8] = molecular target: Sphingosine 1-phosphate receptor 3 (Homo sapiens) (UniProt Q99500); test: Activity at human S1P3 receptor at 10 uM
[9] = molecular target: B2 bradykinin receptor (Homo sapiens) (UniProt P30411); test: Activity at human bradykinin B2 receptor at 10 uM
[10] = Volume of distribution at steady state in Sprague-Dawley rat at 1 mg/kg, iv by UPLC-MS analysis; assay type: ADME, organism-based; conditions: in vivo, read-out: Vdss
[11] = molecular target: Protein kinase C gamma type (Homo sapiens) (UniProt P05129); test: Activity at human PKCgamma at 10 uM
[12] = molecular target: T2, UDP-glucuronosyltransferase 2B17 (Homo sapiens, UniProt O75795); test: Substrate activity at recombinant human UGT2B17 expressed in baculovirus infected insect cell membranes assessed as enzyme-mediated glucuronidation by measuring Vmax per mg protein at 50 uM preincubated for 5 mins followed by UDPGA addition and measured after 60 mins by LC-MS/MS analysis; assay type: ADME; conditions: 1 h
T2 sequence (O75795 whole entry): T1 sequence (O75795 whole entry)

[13] = molecular target: Vasoactive intestinal polypeptide receptor 1 (Homo sapiens) (UniProt P32241); test: Activity at human VPAC1 at 10 uM
[14] = molecular target: Sodium channel protein type 5 subunit alpha (Homo sapiens, UniProt Q14524); test: Activity at human Nav1.5 at 10 uM
[15] = molecular target: Prostaglandin D2 receptor (Homo sapiens) (UniProt Q13258); test: Activity at human Prostanoid DP receptor at 10 uM
[16] = molecular target: Muscarinic acetylcholine receptor M2 (Homo sapiens) (UniProt P08172); test: Activity at human M2 receptor at 10 uM
[17] = Cmax in patient with advanced solid tumor at 240 mg, po administered once daily measured on day 15; assay type: ADME, organism-based; parameters: dose 240 mg, route oral; conditions: human, in vivo
[18] = molecular target: 5-hydroxytryptamine receptor 2C (Homo sapiens) (UniProt P28335); test: Activity at human 5-HT2C receptor at 10 uM
[19] = AUClast in patient with advanced solid tumor at 160 mg, po administered once daily measured on day 15; assay type: ADME, organism-based; parameters: dose 160 mg, time 0 - last, route oral; conditions: human, in vivo
[20] = molecular target: Galanin receptor type 1 (Homo sapiens) (UniProt P47211); test: Activity at human GAL1 receptor at 10 uM
[21] = molecular target: Vasoactive intestinal polypeptide receptor 1 (Homo sapiens) (UniProt P32241); test: Activity at human VPAC1 long isoform at 10 uM
[22] = molecular target: Tyrosine-protein kinase Lyn (Homo sapiens) (UniProt P07948); test: Activity at human Lyn at 10 uM
[23] = molecular target: Calcitonin gene-related peptide type 1 receptor (Homo sapiens) (UniProt Q16602); test: Activity at human CGRP1 at 10 uM
[24] = molecular target: Vasopressin V2 receptor (Homo sapiens) (UniProt P30518); test: Activity at human V2 receptor at 10 uM
[25] = molecular target: Mitogen-activated protein kinase 1 (Homo sapiens) (UniProt P28482); test: Activity at human MAPK1 at 10 uM
[26] = molecular target: Parathyroid hormone/parathyroid hormone-related peptide receptor (Homo sapiens) (UniProt Q03431); test: Activity at human PTH1 receptor at 10 uM
[27] = molecular target: Platelet-activating factor receptor (Homo sapiens) (UniProt P25105); test: Activity at human PAF receptor at 10 uM
[28] = molecular target: Vasoactive intestinal polypeptide receptor 2 (Homo sapiens) (UniProt P41587); test: Activity at human VPAC2 at 10 uM
[29] = molecular target: Somatostatin receptor type 4 (Homo sapiens) (UniProt P31391); test: Activity at human SST4 receptor at 10 uM
[30] = molecular target: C-X-C chemokine receptor type 1 (Homo sapiens) (UniProt P25024); test: Activity at human CXCR1 receptor at 10 uM
[31] = molecular target: C-C chemokine receptor type 1 (Homo sapiens) (UniProt P32246); test: Activity at human CCR1 receptor at 10 uM
[32] = system: Homo sapiens; test: In vivo inhibition of HIF-2alpha in po dosed patient with advanced solid tumor assessed as reduction in EPO expression administered once daily; assay type: organism-based
[33] = molecular target: 5-hydroxytryptamine receptor 2B (Homo sapiens) (UniProt P41595); test: Activity at human 5-HT2B receptor at 10 uM
[34] = molecular target: Lysophosphatidic acid receptor 3 (Homo sapiens) (UniProt Q9UBY5); test: Activity at human LPA3 receptor at 10 uM
[35] = Plasma concentration in patient with advanced solid tumor at 160 mg, po administered once daily measured on day 15 after 24 hrs; assay type: ADME, organism-based; conditions: human
[36] = Half life in patient with advanced solid tumor at 40 mg, po administered once daily measured on day 15; assay type: ADME, organism-based; conditions: human, in vivo
[37] = molecular target: Protein kinase C epsilon type (Homo sapiens) (UniProt Q02156); test: Activity at human PKCepsilon at 10 uM

Sequence of Vasoactive intestinal polypeptide receptor 1 (Homo sapiens) (P32241 whole entry, canonical isoform): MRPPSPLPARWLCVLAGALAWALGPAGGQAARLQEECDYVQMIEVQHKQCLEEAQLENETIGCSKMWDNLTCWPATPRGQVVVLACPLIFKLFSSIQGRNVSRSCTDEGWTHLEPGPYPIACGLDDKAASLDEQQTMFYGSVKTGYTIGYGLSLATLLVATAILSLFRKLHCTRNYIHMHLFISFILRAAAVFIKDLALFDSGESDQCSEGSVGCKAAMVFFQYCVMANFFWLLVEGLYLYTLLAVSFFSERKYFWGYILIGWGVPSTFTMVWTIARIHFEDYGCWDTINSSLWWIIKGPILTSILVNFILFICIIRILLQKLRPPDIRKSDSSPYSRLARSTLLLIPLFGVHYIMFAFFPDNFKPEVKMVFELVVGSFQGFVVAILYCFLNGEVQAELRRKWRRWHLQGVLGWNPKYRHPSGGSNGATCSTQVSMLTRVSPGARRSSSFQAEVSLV
Sequence of Sphingosine 1-phosphate receptor 3 (Homo sapiens) (Q99500 whole entry): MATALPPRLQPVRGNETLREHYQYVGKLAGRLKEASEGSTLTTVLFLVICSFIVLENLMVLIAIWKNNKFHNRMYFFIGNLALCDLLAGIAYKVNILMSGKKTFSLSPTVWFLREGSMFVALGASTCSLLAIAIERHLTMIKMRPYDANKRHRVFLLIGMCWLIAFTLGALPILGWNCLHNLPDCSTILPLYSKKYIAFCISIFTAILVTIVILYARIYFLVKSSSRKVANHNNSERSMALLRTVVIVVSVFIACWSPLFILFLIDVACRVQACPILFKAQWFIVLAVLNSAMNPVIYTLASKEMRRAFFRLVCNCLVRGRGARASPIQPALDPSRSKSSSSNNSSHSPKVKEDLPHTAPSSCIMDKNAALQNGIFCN
Sequence of Galanin receptor type 1 (Homo sapiens) (P47211 whole entry, canonical isoform): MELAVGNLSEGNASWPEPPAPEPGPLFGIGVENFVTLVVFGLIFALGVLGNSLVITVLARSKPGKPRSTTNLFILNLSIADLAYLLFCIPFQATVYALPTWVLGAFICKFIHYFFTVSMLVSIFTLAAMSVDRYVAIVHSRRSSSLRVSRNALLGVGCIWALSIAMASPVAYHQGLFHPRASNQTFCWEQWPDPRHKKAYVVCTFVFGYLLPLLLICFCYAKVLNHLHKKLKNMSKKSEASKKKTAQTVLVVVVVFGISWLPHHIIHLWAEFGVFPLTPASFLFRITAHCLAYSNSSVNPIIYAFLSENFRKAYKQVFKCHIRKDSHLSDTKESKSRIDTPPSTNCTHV
Sequence of B2 bradykinin receptor (Homo sapiens) (P30411 whole entry): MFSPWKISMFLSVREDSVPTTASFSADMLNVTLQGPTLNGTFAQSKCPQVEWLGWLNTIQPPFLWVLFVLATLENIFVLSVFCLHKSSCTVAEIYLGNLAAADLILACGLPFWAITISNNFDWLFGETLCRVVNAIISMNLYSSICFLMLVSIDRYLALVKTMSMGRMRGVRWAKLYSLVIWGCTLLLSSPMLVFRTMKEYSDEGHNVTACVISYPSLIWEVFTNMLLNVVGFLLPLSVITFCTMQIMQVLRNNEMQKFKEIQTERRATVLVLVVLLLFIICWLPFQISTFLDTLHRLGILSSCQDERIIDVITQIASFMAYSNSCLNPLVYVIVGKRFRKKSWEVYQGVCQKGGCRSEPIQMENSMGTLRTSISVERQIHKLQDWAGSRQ
Sequence of Tyrosine-protein kinase Lyn (Homo sapiens) (P07948 2-512 limits assumed): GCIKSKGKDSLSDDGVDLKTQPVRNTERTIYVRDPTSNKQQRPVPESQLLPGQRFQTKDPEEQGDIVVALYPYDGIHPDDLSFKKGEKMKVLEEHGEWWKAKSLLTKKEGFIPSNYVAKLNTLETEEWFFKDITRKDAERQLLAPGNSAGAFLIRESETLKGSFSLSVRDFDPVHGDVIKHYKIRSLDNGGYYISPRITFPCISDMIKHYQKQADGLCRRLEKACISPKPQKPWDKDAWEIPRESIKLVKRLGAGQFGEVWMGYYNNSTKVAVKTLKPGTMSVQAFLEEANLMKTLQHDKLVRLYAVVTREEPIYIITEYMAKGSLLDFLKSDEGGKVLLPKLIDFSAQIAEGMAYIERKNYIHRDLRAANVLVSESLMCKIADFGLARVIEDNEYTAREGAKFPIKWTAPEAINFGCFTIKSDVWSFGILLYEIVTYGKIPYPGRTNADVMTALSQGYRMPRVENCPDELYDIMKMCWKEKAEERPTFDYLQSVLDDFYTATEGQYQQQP
Sequence of Lysophosphatidic acid receptor 3 (Homo sapiens) (Q9UBY5 whole entry): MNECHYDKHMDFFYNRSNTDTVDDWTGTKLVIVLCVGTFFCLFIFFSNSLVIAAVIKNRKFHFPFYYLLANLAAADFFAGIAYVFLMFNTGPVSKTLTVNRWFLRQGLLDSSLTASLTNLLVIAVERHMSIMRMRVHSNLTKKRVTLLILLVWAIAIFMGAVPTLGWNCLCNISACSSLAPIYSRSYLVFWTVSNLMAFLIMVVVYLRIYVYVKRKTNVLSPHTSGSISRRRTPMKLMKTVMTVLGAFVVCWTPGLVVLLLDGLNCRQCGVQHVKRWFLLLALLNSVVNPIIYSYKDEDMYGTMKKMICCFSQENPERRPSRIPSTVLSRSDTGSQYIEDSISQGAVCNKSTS
Sequence of 5-hydroxytryptamine receptor 2C (Homo sapiens) (P28335 whole entry): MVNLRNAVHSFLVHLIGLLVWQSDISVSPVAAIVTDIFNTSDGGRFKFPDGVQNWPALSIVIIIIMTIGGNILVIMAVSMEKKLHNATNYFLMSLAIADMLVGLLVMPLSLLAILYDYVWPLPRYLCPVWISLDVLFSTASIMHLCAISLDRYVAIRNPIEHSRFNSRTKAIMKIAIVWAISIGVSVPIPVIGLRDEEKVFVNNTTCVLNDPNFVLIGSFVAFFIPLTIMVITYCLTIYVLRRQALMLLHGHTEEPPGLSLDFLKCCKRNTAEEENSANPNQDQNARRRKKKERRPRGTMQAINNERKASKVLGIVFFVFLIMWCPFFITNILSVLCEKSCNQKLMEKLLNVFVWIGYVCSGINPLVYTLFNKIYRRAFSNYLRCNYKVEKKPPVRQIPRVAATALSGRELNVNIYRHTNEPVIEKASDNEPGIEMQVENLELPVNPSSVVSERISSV
Sequence of fMet-Leu-Phe receptor (Homo sapiens) (P21462 whole entry): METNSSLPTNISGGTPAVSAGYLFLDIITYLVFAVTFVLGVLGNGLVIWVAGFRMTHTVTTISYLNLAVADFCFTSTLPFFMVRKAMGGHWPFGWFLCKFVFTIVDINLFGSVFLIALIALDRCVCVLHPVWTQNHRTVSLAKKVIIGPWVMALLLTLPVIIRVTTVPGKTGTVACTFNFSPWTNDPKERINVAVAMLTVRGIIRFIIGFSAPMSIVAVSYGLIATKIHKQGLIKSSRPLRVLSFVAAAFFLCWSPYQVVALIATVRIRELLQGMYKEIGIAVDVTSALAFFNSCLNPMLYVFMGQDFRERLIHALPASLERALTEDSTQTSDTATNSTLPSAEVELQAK
Sequence of Serine/threonine-protein kinase STK11 (Homo sapiens) (Q15831 whole entry): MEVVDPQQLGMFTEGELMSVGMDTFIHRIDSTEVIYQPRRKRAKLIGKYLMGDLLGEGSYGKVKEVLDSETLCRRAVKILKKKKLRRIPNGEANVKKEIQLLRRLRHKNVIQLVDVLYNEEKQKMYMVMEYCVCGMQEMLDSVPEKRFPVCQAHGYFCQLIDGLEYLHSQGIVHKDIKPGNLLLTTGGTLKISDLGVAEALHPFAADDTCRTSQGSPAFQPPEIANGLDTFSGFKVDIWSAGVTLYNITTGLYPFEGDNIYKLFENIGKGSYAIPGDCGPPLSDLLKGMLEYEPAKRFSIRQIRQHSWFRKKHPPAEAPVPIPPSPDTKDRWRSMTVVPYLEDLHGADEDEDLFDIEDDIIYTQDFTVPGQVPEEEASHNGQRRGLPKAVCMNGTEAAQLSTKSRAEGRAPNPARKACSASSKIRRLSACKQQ
Sequence of Somatostatin receptor type 4 (Homo sapiens) (P31391 whole entry): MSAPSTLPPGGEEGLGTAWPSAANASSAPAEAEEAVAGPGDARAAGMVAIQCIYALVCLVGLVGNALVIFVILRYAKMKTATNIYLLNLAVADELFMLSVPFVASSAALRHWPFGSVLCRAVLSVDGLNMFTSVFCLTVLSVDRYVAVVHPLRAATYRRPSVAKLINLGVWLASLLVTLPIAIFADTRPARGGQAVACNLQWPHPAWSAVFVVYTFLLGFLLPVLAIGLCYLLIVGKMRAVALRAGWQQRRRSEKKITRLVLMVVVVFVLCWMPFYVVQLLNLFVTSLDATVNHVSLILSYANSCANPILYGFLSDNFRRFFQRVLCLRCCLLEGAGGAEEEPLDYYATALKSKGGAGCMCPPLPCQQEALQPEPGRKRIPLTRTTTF
Sequence of Vasoactive intestinal polypeptide receptor 2 (Homo sapiens) (P41587 whole entry): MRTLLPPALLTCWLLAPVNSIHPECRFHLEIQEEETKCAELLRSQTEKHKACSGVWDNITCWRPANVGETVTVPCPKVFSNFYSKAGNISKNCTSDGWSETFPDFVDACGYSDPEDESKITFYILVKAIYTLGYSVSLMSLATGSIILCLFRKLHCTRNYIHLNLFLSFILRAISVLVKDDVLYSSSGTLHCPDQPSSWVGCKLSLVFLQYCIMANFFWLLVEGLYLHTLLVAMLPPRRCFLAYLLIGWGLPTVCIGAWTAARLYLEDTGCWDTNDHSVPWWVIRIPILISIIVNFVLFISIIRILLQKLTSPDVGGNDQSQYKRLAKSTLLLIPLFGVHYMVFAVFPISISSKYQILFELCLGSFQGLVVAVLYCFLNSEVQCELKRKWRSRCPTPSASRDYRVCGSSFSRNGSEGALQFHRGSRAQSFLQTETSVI
Sequence of Platelet-activating factor receptor (Homo sapiens) (P25105 whole entry): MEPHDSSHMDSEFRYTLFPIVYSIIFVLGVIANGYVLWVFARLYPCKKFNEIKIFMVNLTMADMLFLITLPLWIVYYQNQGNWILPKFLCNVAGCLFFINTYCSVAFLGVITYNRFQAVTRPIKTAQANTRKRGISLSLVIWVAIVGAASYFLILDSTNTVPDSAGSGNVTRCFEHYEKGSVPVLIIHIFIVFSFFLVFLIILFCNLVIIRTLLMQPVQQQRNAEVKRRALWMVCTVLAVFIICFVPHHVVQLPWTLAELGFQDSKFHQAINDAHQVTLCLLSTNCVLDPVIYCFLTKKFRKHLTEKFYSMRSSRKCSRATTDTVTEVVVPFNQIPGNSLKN

What does the source list for `CS(=O)(=O)c1ccc(Oc2cc(F)cc(C#N)c2)c2c1[C@H](O)[C@H](F)[C@@H]2F` [BELZUTIFAN]?
Activity [1]: inactive; Activity [2]: inactive; Km at 1 h, 50 µM [3]: 10 µM; Activity [4]: Not Active; Activity [5]: inactive; Activity [6]: inactive; Activity [7]: inactive; Activity [8]: inactive; Activity [9]: inactive; Vd [10]: 1.6 L/kg; Activity [11]: inactive; Vmax [12]: 4.7 pmol/min; Activity [13]: inactive; Activity [14]: Not Active; Activity [15]: inactive; Activity [16]: inactive; Cmax [17]: 2700 ng/mL; Activity [18]: inactive; AUC(0-t) [19]: 21000 ng·h/mL; Activity [20]: inactive; Activity [21]: inactive; Activity [22]: inactive; Activity [23]: inactive; Activity [24]: inactive; Activity [25]: inactive; Activity [26]: inactive; Activity [27]: inactive; Activity [28]: inactive; Activity [29]: inactive; Activity [30]: inactive; Activity [31]: inactive; inhibition (INH) [32]: Dose-dependent effect; Activity [33]: inactive; Activity [34]: inactive; concentration at 24 h [35]: 490 ng/mL; half-life [36]: 18.8 h; Activity [37]: inactive
